Experimental data from patent US12679839B2, “Cyclin-dependent kinase 7 (CDK7) non-covalent inhibitors” (JANSSEN PHARMACEUTICA NV, priority 2020, dated 2026).

Tests used:
[1] = target: T1, CDK7/Cyclin H/MAT-1 complex (Homo sapiens, UniProt P50613); test: Flint assay, end-point fluorescence (5 nM CDK7/Cyclin H/MAT-1 complex); assay type: biochemical
T1 construct: Human CDK7 (amino acids 1-346); His6 (N); TEV protease cleavage site (N); made in house; host or cells: baculovirus-SF9 insect cells
Summary of the method: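 Trimeric complex of His6-TEV-tagged human CDK7 (1-346), MAT1 (1-309) and cyclin H (1-323), co-expressed in Sf9 cells, at 5 nM final, with substrates and coupling reagents as in the absorbance assay; 24 h reaction. End-point NADH fluorescence decrease (ex 340/em 440 nm); % inhibition versus no-inhibitor and full-inhibition controls, IC50 from four-parameter Hill fit.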

[2] = test system: RNA polymerase II Serine 5 phosphorylation (Rpb1 CTD), downstream substrate of CDK7; test: Imaging-based cellular RNA PolII Ser5 phosphorylation assay in A549 cells; assay type: cell-based, human; settings: Homo sapiens, A549, 3 h, challenged with compound for 3 hours, read-out: pRNA polII Ser5 (A549) pIC50 (converted)
Summary of the method: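 A549 cells seeded 20 h in DMEM with 1% FBS, then exposed to compound for 3 h at 37 °C; fixed, methanol-permeabilized and immunostained for phospho-Rpb1 CTD Ser5, read by automated imaging. Signal normalized to DMSO (high) and 10 μM LDC4297 (low) controls; IC50 from four-parameter fit of % control vs concentration.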

T1 sequence (P50613 whole entry, the tested form may be a part): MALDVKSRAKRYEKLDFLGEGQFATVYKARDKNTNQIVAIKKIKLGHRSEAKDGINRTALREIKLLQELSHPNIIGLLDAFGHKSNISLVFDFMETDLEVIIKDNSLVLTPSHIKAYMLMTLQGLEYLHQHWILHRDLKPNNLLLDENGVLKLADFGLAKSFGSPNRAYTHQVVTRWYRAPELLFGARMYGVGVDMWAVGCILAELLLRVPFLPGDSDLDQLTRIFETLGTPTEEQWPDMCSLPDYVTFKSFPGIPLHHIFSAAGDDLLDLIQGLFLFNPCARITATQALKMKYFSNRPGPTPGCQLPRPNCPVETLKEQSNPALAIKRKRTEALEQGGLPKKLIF
T1 sequence (P51946 whole entry partner, the tested form may be a part): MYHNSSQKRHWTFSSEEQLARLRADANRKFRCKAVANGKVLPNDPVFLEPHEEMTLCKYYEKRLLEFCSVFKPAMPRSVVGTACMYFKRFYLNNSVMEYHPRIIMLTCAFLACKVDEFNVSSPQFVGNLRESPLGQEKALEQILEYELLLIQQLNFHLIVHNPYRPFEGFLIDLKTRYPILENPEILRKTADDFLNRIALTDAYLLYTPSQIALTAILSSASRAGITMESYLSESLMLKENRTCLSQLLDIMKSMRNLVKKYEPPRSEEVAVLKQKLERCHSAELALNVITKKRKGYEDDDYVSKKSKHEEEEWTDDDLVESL
T1 sequence (P51948 whole entry partner, the tested form may be a part): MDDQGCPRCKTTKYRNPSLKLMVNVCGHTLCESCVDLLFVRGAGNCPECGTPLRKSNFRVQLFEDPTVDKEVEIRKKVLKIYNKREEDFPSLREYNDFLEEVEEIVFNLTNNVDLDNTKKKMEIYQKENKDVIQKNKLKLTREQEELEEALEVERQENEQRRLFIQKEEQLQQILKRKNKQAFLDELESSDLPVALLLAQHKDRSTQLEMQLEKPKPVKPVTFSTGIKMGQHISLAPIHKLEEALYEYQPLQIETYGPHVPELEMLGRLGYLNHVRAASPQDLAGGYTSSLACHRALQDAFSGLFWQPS

In the case of `C[C@@H]1Cc2cnc(NC3CCS(=O)(=O)CC3)nc2CN1C(=O)N1CCN(C)C[C@@H]1c1ccccc1` [Compound 214], the “CDK7 (5 nM) pIC50” value [1] is reported as 7.8 and the IC50 [2] is reported as 3.55 µM.
